Measured values taken from US11655235B2, “Pyrrolidine and piperidine compounds” (YUHAN CORPORATION, priority 2019, dated 2023).

What was measured:
Format in all cases: biochemical
Recombinant human FAP = molecular target: T1, Recombinant human FAP (Homo sapiens, UniProt Q12884); assay: FAP inhibition, fluorogenic substrate Z-Gly-Pro-AMC; details: 25° C., Z-Gly-Pro-AMC substrate
T1 construct: purchased R&D systems
T1 sequence (Q12884 1-760): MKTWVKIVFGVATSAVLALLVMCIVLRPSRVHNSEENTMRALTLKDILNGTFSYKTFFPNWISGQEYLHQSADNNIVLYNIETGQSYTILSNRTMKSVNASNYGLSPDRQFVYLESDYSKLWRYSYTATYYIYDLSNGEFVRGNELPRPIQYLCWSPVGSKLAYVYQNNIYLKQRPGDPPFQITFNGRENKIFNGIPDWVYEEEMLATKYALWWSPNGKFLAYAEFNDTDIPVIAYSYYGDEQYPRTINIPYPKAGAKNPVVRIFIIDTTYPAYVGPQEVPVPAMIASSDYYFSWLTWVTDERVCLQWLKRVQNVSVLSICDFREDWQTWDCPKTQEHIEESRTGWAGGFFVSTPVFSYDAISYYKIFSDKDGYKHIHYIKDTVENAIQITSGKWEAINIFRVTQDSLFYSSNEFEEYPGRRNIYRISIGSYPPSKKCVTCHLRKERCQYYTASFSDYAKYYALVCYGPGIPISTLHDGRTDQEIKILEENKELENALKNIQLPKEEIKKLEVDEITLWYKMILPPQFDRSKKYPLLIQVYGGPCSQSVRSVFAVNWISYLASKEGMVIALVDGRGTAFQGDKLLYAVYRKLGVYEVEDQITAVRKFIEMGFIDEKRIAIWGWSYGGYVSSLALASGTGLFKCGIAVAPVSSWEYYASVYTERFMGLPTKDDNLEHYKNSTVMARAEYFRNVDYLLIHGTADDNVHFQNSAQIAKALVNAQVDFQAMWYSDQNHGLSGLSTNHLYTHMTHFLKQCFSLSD
How it was run: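 Eight-point compound dilutions (≤0.1% DMSO) were incubated at 25° C with 10 ng recombinant human FAP in Tris pH 7.5/1 M NaCl/BSA buffer and Z-Gly-Pro-AMC. Inhibition was taken as % drop in fluorescence rate (380/460 nm) against uninhibited control; IC50 came from a four-parameter logistic fit.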

recombinant human DPP7 = molecular target: T2, recombinant human DPP7 (Homo sapiens, UniProt Q9UHL4); assay: DPP7 inhibition, fluorogenic substrate Lys-Pro-AMC
T2 construct: purchased R&D Systems
How it was run: (§1)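 Inhibitors are titrated in an 8-point series into the enzyme's assay buffer (DMSO no more than 0.5%). Substrate cleavage at 25 °C is followed by fluorescence, excitation 380 nm and emission 460 nm. IC50 values come from a four-variable logistic model.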

recombinant human DPP8 = molecular target: T3, recombinant human DPP8 (Homo sapiens, UniProt Q6V1X1); assay: DPP8 inhibition, fluorogenic substrate Z-Ala-Pro-AMC; details: 25° C., Z-Ala-Pro-AMC substrate
T3 construct: purchased PBS Bioscience
T3 sequence (Q6V1X1 whole entry): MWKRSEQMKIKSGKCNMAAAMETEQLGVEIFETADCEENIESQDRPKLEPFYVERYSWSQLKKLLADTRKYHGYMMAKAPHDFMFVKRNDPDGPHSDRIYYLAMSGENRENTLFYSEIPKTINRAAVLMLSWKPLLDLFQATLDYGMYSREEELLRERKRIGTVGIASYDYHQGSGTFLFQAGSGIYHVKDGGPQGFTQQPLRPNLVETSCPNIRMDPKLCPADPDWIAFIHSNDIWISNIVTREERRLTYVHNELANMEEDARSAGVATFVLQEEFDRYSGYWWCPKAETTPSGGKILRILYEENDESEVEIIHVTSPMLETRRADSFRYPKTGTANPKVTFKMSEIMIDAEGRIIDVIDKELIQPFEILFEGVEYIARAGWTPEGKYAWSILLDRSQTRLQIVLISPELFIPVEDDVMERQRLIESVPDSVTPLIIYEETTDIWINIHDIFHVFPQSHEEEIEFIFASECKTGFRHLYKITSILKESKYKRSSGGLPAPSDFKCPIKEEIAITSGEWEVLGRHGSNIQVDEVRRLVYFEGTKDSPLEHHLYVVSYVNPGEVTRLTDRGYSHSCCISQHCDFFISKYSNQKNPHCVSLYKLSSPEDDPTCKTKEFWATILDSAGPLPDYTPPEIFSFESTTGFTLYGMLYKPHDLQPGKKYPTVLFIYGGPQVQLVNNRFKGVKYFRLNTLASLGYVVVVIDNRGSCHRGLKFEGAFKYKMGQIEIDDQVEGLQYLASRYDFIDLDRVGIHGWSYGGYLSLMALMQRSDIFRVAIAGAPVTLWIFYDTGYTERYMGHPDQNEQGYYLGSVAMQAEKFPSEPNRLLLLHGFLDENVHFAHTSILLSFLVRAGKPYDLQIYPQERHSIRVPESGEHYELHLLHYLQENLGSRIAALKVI
Description: The compounds according to the present technology were evaluated in terms of the inhibitory effect on the activity of dipeptidyl peptidases including FAP by using a substrate producing fluorescent substances upon enzymatic decomposition. The test was conducted at 25° C. to get a final reaction volume of 100 μL in a 96 black well plate. […] Briefly, the test compounds were dissolved in dimethyl sulfoxide (DMSO) at a concentration of 20 mM and then subjected to serial dilution, thereby creating an 8 point curve. As for the control group, a 6 point curve created by serial dilution of Talabostat in the same buffer solution was used. Fluorescence intensity was measured using a microplate reader (Flexstation3, Molecular Devices) under the wavelength condition exciting at 380 nm and reading the emission at 460 nm. The inhibitory effect of the test compounds was measured as a decrease (%) in the signal rate as compared to the control group without any inhibitor. Data was fixed to a logistic model with four variables and IC50 value was calculated using GraphPad Prism program. As for recombinant human DPP4 (R&D Systems), 25 mM tris (pH 8.0) buffer as a buffer solution and H-Gly-Pro-AMC (Bachem) as a substrate were used. As for recombinant human DPP7 (R&D Systems), 25 mM MES (pH 6.0) buffer as a buffer solution and Lys-Pro-AMC (Bachem) as a substrate were used. As for recombinant human DPP8 (PBS Bioscience), as a buffer solution, a 10 mM tris (pH 7.4) buffer comprising 10 mM of magnesium chloride and 0.05% of Tween 20, and Z-Ala-Pro-AMC (BPS Bioscience) as a substrate were used. As for recombinant human DPP9 (R&D Systems), a 25 mM tris (pH 8.0) buffer as a buffer solution and H-Gly-Pro-AMC (Bachem) as a substrate were used. As for recombinant human PREP (R&D System), as a buffer solution, a 25 mM tris (pH 7.5) buffer comprising 250 mM sodium chloride and 2.5 mM DTT (Dithiolthreitol), and Z-Gly-Pro-AMC (Bachem) as a substrate were used. The evaluation was made by using 10 ng of DPP4, PDD7, and PREP, 20 ng of DPP8, and 50 ng of DPP9 based on the final reaction. In the evaluation of DPP4, the test compounds were subjected to serial dilution in a buffer under the condition containing up to 0.1% of DMSO. In the evaluation of DPP7, DPP8, DPP9, and PREP, the test compounds were subjected to serial dilution in each buffer under the condition containing up to 0.5% of DMSO.

recombinant human DPP9 = molecular target: T4, recombinant human DPP9 (Homo sapiens, UniProt Q86TI2); assay: DPP9 inhibition, fluorogenic substrate H-Gly-Pro-AMC; details: 25° C., H-Gly-Pro-AMC substrate
T4 construct: purchased R&D Systems
T4 sequence (Q86TI2 whole entry): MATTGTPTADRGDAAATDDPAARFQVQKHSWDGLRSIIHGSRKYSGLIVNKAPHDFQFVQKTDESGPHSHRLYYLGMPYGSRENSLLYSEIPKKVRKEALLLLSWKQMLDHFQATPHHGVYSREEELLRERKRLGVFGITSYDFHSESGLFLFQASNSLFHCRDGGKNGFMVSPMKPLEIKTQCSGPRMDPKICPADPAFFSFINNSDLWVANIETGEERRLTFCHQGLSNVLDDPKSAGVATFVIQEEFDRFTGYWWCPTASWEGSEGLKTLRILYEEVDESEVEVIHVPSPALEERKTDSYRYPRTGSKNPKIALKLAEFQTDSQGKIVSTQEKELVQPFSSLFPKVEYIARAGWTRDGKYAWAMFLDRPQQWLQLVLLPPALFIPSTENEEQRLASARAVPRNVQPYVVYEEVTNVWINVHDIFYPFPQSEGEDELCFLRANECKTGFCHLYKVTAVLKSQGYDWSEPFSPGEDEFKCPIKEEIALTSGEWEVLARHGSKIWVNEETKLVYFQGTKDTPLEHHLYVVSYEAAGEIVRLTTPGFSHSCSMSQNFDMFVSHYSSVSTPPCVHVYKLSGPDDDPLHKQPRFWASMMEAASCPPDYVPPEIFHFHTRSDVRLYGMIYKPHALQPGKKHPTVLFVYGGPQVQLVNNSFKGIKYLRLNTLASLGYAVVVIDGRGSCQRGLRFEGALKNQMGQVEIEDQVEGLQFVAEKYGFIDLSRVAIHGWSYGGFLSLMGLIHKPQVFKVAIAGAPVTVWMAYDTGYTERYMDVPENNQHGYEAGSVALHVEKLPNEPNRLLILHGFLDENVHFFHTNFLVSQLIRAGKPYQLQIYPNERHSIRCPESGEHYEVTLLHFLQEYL
How it was run: as §1

recombinant human PREP = molecular target: T5, recombinant human PREP (Homo sapiens, UniProt P48147); assay: PREP inhibition, fluorogenic substrate Z-Gly-Pro-AMC; details: Inhibitory Activity (IC50, nM) PREP, 25° C., Z-Gly-Pro-AMC substrate
T5 construct: purchased R&D System
T5 sequence (P48147 1-710): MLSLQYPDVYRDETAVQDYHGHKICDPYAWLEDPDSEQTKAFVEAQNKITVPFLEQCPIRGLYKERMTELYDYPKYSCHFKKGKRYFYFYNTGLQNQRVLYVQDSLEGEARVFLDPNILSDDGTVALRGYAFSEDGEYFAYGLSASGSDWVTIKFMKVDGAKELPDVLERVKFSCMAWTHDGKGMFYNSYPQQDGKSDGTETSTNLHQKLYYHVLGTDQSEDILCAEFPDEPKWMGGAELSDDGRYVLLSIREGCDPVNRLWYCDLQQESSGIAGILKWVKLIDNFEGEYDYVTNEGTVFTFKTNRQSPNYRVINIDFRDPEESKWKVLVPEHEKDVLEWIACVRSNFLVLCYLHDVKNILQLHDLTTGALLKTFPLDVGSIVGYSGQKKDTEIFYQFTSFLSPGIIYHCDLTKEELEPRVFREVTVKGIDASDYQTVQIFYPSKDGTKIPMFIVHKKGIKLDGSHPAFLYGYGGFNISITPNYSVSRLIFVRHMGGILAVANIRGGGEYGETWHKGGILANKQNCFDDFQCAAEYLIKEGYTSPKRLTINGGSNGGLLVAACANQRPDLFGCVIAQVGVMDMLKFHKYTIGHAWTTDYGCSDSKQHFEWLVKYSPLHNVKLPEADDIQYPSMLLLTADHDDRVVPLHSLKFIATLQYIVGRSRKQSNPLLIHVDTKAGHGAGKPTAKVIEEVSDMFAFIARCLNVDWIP
How it was run: as §1

DPP4 = DPP4 (Homo sapiens, UniProt P27487); assay: DPP4 inhibition, fluorogenic substrate H-Gly-Pro-AMC; design: purchased R&D Systems; details: for IC50: 25° C., H-Gly-Pro-AMC substrate; for inhibition at 1 µM: read-out: hDPP4 inhibition % at 1 μM
DPP4, sequence (P27487 whole entry): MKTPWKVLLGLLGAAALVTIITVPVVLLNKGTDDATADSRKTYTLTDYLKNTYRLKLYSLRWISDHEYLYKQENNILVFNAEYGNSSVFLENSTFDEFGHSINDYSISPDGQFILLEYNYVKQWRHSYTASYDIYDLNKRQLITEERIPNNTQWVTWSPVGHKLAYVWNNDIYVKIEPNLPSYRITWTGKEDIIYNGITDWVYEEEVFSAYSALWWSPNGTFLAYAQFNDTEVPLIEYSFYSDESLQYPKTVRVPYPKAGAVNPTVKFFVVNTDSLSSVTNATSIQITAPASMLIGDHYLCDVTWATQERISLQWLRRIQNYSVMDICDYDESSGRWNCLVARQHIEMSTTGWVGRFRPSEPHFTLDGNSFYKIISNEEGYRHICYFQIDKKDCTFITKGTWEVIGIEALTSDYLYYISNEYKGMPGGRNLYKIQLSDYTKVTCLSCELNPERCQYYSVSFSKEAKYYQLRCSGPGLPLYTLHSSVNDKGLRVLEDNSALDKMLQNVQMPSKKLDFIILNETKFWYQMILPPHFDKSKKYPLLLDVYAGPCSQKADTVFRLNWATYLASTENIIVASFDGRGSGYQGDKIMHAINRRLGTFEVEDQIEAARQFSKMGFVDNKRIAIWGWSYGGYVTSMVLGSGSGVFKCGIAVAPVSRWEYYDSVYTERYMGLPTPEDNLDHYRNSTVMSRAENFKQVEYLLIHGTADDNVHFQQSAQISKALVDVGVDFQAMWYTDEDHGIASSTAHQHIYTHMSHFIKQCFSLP

Row | SMILES | IC50 (Recombinant human FAP) [nM] | IC50 (recombinant human DPP7) [nM] | IC50 (recombinant human DPP8) [nM] | IC50 (recombinant human DPP9) [nM] | IC50 (recombinant human PREP) [nM] | IC50 (DPP4) [nM] | inhibition at 1 µM (DPP4) [%]
1 | N#C[C@@H]1CC(F)(F)CN1C(=O)CN1CC[C@H](Nc2cccc3ccoc23)C1 [Example 11, (S)-1-(2-((S)-3-(benzofuran-7-ylamino)pyrrolidin-1-yl)acetyl)-4,4-difluoropyrrolidine-2-carbonitrile] | 1.3 | 95.6 | 228 | 17100 | > 100000 | > 1000 | –
2 | N#C[C@@H]1CC(F)(F)CN1C(=O)CN1CC[C@H](Nc2ccccc2-c2ccccc2)C1 [Example 13, (S)-1-(2-((S)-3-([1,1′-biphenyl]-2-ylamino)pyrrolidin-1-yl)acetyl)-4,4-difluoropyrrolidine-2-carbonitrile] | 24.6 | 243 | 163 | 56500 | > 100000 | > 1000 | –
3 | N#C[C@@H]1CCCN1C(=O)CN1CC[C@H](Nc2cncc3ccccc23)C1 [Example 19, (S)-1-(2-((S)-3-(isoquinolin-4-ylamino)pyrrolidin-1-yl)acetyl)pyrrolidine-2-carbonitrile] | 5.74 | 206 | 45200 | 44000 | 11800 | > 1000 | –
4 | N#C[C@@H]1CCCN1C(=O)CN1CC[C@@H](Nc2cncc3ccccc23)C1 [Example 24, (S)-1-(2-((R)-3-(isoquinolin-4-ylamino)pyrrolidin-1-yl)acetyl)pyrrolidine-2-carbonitrile] | 2.12 | 524 | 77300 | 68000 | 5460 | > 1000 | –
5 | N#C[C@@H]1C[C@H](F)CN1C(=O)CN1CC[C@H](Nc2cncc3ccoc23)C1 [Example 28, (2S,4S)-4-fluoro-1-(2-((S)-3-(furo[3,2-c]pyridin-7-ylamino)pyrrolidin-1-yl)acetyl)pyrrolidin-2-carbonitrile] | 1.82 | 346 | 18600 | 8240 | 6600 | 2630 | –

The remaining molecules from weak to strong by IC50 (Recombinant human FAP), led by results:

Row | IC50 (Recombinant human FAP) [nM] | IC50 (recombinant human DPP7) [nM] | IC50 (recombinant human DPP8) [nM] | IC50 (recombinant human DPP9) [nM] | IC50 (recombinant human PREP) [nM] | IC50 (DPP4) [nM] | inhibition at 1 µM (DPP4) [%] | SMILES
6 | 18.7 | 126 | 676 | 11100 | > 100000 | > 1000 | – | N#C[C@@H]1CC(F)(F)CN1C(=O)CN1CC[C@H](Nc2ccc(-c3ccccc3)cc2)C1 [Example 14, (S)-1-(2-((S)-3-([1,1′-biphenyl]-4-ylamino)pyrrolidin-1-yl)acetyl)-4,4-difluoropyrrolidine-2-carbonitrile]
7 | 12.3 | 196 | 253 | 48800 | > 100000 | – | 9.7 | N#C[C@@H]1CC(F)(F)CN1C(=O)CN1CC[C@H](Nc2ccc3ccccc3c2)C1 [Example 15, (S)-4,4-difluoro-1-(2-((S)-3-(naphthalen-2-ylamino)pyrrolidin-1-yl)acetyl)pyrrolidine-2-carbonitrile]
8 | 6.24 | 1610 | > 10000 | > 100000 | 6960 | > 1000 | – | N#C[C@@H]1CCCN1C(=O)CN1CC[C@@H](Nc2cnc3ccccc3c2)C1 [Example 17, (S)-1-(2-((R)-3-(quinolin-3-ylamino)pyrrolidin-1-yl)acetyl)pyrrolidine-2-carbonitrile]
9 | 4.53 | 2120 | 23100 | 69100 | 7230 | > 1000 | – | N#C[C@@H]1CCCN1C(=O)CN1CC[C@H](Nc2cccc3sccc23)C1 [Example 20, (S)-1-(2-((S)-3-(benzo[b]thiophen-4-ylamino)pyrrolidin-1-yl)acetyl)pyrrolidine-2-carbonitrile]
10 | 3.2 | 75 | 143 | 9980 | > 100000 | > 1000 | – | N#C[C@@H]1CC(F)(F)CN1C(=O)CN1CC[C@H](Nc2cccc3ccsc23)C1 [Example 10, (S)-1-(2-((S)-3-(benzo[b]thiophen-7-ylamino)pyrrolidin-1-yl)acetyl)-4,4-difluoropyrrolidine-2-carbonitrile]
11 | 2.6 | 84.7 | 557 | 13700 | > 100000 | – | 11 | N#C[C@@H]1CC(F)(F)CN1C(=O)CN1CC[C@H](Nc2cccc(-c3ccccc3)c2)C1 [Example 16, (S)-1-(2-((S)-3-([1,1′-biphenyl]-3-ylamino)pyrrolidin-1-yl)acetyl)-4,4-difluoropyrrolidine-2-carbonitrile]
12 | 1.62 | 1220 | 20700 | 27400 | 12100 | – | 5.4 | N#C[C@@H]1CCCN1C(=O)CN1CC[C@H](Nc2cccc3ncccc23)C1 [Example 27, (S)-1-(2-((S)-3-(quinolin-5-ylamino)pyrrolidin-1-yl)acetyl)pyrrolidine-2-carbonitrile]
13 | 0.5 | < 30 | 371 | 17700 | > 100000 | > 1000 | – | N#C[C@@H]1CC(F)(F)CN1C(=O)CN1CC[C@H](Nc2cncc3ccoc23)C1 [Example 12, (S)-4,4-difluoro-1-(2-((S)-3-(furo[3,2-c]pyridin-7-ylamino)pyrrolidin-1-yl)acetyl)pyrrolidine-2-carbonitrile]
